Assay results taken from patent US20110039770A1, “INHIBITORS OF PROTEIN KINASE C ISOFORMS AND USES THEREOF” (PHARMAGAP INC., priority 2005, published 2011).
Where a SMILES comes first, the peptide text is derived from it. The star is where a group is joined. PNA(A) = NCCN(CC(=O)*)C(=O)Cn1cnc2c(N)ncnc21

Tests used:
PKC alpha = PKC alpha (Homo sapiens, UniProt P17252); assay: Kinase-Glo Luminescent Kinase Assay; format: biochemical; conditions: read-out: % Inhibition PKC-α
Procedure: (§1) Compounds TIM 10, 11, 13, 14, 15, and 18-22 (see Table 28) were tested for their ability to inhibit the activity of PKC-alpha, beta 1, delta and epsilon isoforms the Kinase-Glo™ Luminescent Kinase Assay (Promega, Cat # V6712/3/4) following the manufacturer's instructions.

PKC delta = PKC delta (Homo sapiens, UniProt Q05655); assay: Kinase-Glo Luminescent Kinase Assay; format: biochemical; conditions: read-out: % Inhibition PKC-δ
Chain of PKC delta (Q05655 whole entry): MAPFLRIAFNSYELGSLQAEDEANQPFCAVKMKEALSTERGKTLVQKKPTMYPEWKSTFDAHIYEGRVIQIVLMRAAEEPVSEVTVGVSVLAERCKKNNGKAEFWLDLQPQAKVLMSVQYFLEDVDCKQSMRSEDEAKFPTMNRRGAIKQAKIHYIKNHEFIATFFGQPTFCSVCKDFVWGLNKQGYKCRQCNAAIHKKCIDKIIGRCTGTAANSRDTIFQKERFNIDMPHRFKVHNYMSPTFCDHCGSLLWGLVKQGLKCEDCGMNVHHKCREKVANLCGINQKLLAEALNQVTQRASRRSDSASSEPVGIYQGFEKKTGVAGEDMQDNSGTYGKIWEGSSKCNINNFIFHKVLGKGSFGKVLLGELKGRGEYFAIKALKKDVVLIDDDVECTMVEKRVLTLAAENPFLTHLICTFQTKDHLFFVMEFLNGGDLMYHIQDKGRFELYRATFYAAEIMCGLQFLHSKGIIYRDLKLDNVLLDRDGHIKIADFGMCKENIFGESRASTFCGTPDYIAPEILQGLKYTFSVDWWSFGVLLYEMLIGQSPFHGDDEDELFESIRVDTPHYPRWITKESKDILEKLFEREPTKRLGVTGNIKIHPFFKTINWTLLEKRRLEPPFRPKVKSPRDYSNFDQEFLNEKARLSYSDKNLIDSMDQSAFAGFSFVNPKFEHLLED
Procedure: as §1

[1] = Flocculation of blood serum and plasma component; conditions: pigs, mice and human
Source text: In order to prevent this flocculation and increase the efficacy of the TIM compounds, advantage was taken of the properties of TPGS (alpha tocopherol polyethylene glycol succinate). The adjuvant may also protect the TIM compounds from enzymatic degradation.

PKC beta 1 = PKC beta 1 (Homo sapiens, UniProt P05771); assay: Kinase-Glo Luminescent Kinase Assay; format: biochemical; set-up: purchased; conditions: read-out: % Inhibition PKC-βI
Chain of PKC beta 1 (P05771 whole entry): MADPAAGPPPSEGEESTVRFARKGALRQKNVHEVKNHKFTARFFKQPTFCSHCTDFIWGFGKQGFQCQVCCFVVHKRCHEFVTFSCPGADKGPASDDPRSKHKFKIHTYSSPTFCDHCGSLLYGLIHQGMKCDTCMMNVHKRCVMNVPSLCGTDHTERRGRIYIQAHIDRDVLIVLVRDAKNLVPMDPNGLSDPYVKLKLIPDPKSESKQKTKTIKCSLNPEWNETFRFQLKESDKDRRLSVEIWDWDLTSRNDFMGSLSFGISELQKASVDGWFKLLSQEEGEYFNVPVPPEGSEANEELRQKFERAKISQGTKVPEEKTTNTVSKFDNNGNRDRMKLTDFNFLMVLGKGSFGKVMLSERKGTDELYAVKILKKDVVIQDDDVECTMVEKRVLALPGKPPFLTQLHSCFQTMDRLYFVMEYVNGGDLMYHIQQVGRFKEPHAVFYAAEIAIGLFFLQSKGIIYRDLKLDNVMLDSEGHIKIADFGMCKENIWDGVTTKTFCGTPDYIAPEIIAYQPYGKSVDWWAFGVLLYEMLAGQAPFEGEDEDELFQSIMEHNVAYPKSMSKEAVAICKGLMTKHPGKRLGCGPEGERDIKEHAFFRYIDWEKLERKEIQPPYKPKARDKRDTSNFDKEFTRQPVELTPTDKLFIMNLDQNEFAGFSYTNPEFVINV
Procedure: as §1

PKC epsilon = biological target: T1, PKC epsilon (Homo sapiens, UniProt Q02156); assay: Kinase-Glo Luminescent Kinase Assay; format: biochemical; set-up: purchased; conditions: read-out: % Inhibition PKC-ε
T1 sequence (Q02156 1-737): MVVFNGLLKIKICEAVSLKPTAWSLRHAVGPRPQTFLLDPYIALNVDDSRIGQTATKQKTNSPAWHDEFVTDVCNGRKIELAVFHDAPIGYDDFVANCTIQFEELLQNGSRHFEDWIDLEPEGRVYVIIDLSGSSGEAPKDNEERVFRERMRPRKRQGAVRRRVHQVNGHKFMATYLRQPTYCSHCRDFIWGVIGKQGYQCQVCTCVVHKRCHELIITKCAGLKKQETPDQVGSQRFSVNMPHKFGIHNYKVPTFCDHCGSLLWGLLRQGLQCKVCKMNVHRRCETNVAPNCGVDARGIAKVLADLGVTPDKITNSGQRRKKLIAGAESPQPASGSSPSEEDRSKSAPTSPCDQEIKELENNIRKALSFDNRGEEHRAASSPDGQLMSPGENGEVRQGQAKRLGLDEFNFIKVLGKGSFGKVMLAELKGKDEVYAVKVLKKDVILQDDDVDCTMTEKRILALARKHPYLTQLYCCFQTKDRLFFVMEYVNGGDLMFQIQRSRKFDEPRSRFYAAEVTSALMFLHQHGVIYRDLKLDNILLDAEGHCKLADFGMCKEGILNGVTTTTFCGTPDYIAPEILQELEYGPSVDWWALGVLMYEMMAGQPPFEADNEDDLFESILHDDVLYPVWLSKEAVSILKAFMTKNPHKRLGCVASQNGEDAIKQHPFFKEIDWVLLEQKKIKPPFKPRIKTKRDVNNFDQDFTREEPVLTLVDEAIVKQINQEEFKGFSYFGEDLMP
Procedure: as §1

CC[C@H](C)[C@H](NC(=O)[C@H](CO)NC(=O)[C@@H](NC(=O)CNC(=O)[C@@H](NC(=O)[C@H](CC(C)C)NC(=O)[C@H](CC(N)=O)NC(=O)[C@H](CCC(N)=O)NC(=O)[C@H](C)NC(=O)[C@H](CC(=O)O)NC(=O)[C@H](CCCCN)NC(=O)CNC(=O)CNC(=O)CNC(=O)CNC(=O)CNC(=O)CNC(=O)CNC(=O)[C@H](CC(C)C)NC(=O)[C@H](CCCNC(=N)N)NC(=O)[C@H](Cc1ccccc1)NC(=O)[C@H](CCCCNC(=O)CN(CCN)C(=O)Cn1cnc2c(N)ncnc21)NC(=O)[C@H](CCCNC(=N)N)NC(=O)[C@H](CCCNC(=N)N)NC(=O)[C@H](Cc1ccccc1)NC(C)=O)[C@@H](C)CC)[C@@H](C)CC)C(N)=O [TIM 10] (Ac-FRRK(PNA(A))FRLGGGGGGGKDAQNLIGISI-NH2)
inhibition at 15 µM (PKC alpha; 15.0 μM): 31.4% | inhibition at 30 µM (PKC alpha; 30.0 μM): 28.6% | inhibition at 15 µM (PKC delta; 15.0 μM): 15.8% | inhibition at 30 µM (PKC delta; 30.0 μM): 22.1% | flocculation of a component of blood serum and plasma [1]: cause flocculation | inhibition at 15 µM (PKC beta 1; 15.0 μM): 74% | inhibition at 30 µM (PKC beta 1; 30.0 μM): 100% | inhibition at 15 µM (PKC epsilon; 15.0 μM): -11% | inhibition at 30 µM (PKC epsilon; 30.0 μM): 85%
